{"source": "paper PMC12746157", "about": "“Light-Regulated Agonists Spatiotemporally Activating the Vitamin D Receptor Mitigate Psoriasis-like Inflammation in Mice without Inducing Hypercalcemia” (ACS Central Science, 2025)", "key": {"[1]": {"test": "Thermal relaxation and photoisomerization rates of PhotoVDRM in aqueous assay buffer", "type": "physicochemical", "details": "for photoisomerization rate (τ) trans to cis: 365 nm, aqueous buffer 0.6% DMSO", "description": "The UV–vis absorbance spectra of all molecules were measured in the dark and after the application of light of different wavelengths ranging from 365 to 770 nm (Figure A and Figures S1–S3). […] Consequently, violet/UV light below 405 nm efficiently promoted photoisomerization, which produced a dramatic decrease in the π-π* band and a significant increase in the n-π* band at around 445 nm (Table ). […] The proportion of molecules at the PSS in trans isomer upon constant illumination with light at 525 nm and cis at 365 nm was in general above 50%, reaching a remarkable >99% for compound 11d (Table and Figures S4 and S5). […] The greater stability of the trans isomer was consistent with previous quantum mechanical and molecular mechanics predictions. Measuring the photoisomerization properties of compound PhotoVDRM allowed us to determine the photoisomerization quantum yields of the compound by solving a differential equation for photoisomerization. We used MATLAB to perform regression and arrive at the following photoisomerization quantum yields: ϕ365 nm (trans) = 0.0427, ϕ365 nm (cis) = 0.0501, ϕ470 nm (trans) = 0.1857, and ϕ470 nm (cis) = 0.2281 (Figure S9). […] A deeper photocharacterization of PhotoVDRM allowed us to measure the kinetics of photoconversion upon constant illumination with two wavelengths and three light intensities (Figure D and Figure S10). […] Indeed, with LED devices producing light at intensities as low as 0.05 mW/mm^2 we were able to transform trans to cis in around 15.5 s. This time was reduced to 6 and 2 s when the light intensity was increased to 0.15 and 0.75 mW/mm^2. […] Therefore, we proceeded to test the ability of the chemical library to activate the VDR under different light conditions.\n2 Photochemical characterization of compound PhotoVDRM. (A) UV–vis absorption spectra of compound PhotoVDRM under different light conditions. (B) Half-lifetime estimation of compound PhotoVDRM, absorbance was measured at 365 nm. (C) Multiple cis/trans isomerization cycles (365/460 nm) show the stability of the compound over 6 cycles of light application. (D) Photoisomerization under constant illumination with light at 365 nm (violet shade) and 470 nm (blue shade). Light was applied with a CoolLED pe-4000 at 50% intensity that corresponded to 0.75 mW/mm^2 for the light at 365 nm and 0.56 mW/mm^2 for the light at 470 nm; 10% intensity corresponded to 0.15 mW/mm^2 for the light at 365 nm and 0.12 mW/mm^2 for the light at 470 nm; and 5% intensity corresponded to 0.06 mW/mm^2 for the light at 365 nm and 0.05 mW/mm^2 for the light at 470 nm. The photoisomerization rates (τ) using light at 365 nm were measured as 2, 6, and 15.5 s with 50%, 10% and 5% of intensity. […]"}, "[2]": {"test_system": "IL-23-induced psoriatic-like inflammation", "test": "IL-23-induced mouse model of psoriasis (ear thickness)", "type": "in vivo, C57BL/6N mice", "details": "days 2-4, i.p. PhotoVDRM 0.5 mg/kg", "method": "Each mice was administered interlueukin 23 (IL-23) once a day for a total of 3 days by intradermal injection (i.d.) into one of the mouse ears. Contralateral ear i.d. injected with PBS was used as control. Subsequently, ear thickness was measured daily, by using a digital caliper, as indicative of psoriasis-course progression (Figure A).\n(A) Temporal scheme for IL-23-induced mouse model of psoriasis. Animals were treated with IL-23 (i.d.) in the left ear during three consecutive days (days 1, 2 and 3). In addition, a contralateral control was performed consisting of PBS administration in the right ear. At day 2, 3, and 4 animals were previously intraperitoneally (i.p.) administered with vehicle (saline) and drugs (i.e., LSN2148936; 0.005 mg/kg and PhotoVDRM; 0.5 mg/kg). Both ears were irradiated with 420 or 520 nm light at day 2, 3, and 4 during 8 min. […] (C) Inflammatory ear response measurements. Mice ear thickness determination in animals administrated (ip) on days 2, 3, and 4 with vehicle, LSN2148936 or PhotoVDRM treated with 420 or 520 nm light. Each day, ear thickness was measured in millimeters and represented as percentage of ear thickness increase using the first measurement of PBS-administrated ear as control. Data is shown as mean ± SD, n = 5 mice per group. Statistical analysis between PhotoVDRM and vehicle. *P < 0.05 and **P < 0.01 Student’s t test."}, "[3]": {"molecular_target": "VDR (Homo sapiens, UniProt P11473)", "sequence (P11473 whole entry, the tested form may be a part)": "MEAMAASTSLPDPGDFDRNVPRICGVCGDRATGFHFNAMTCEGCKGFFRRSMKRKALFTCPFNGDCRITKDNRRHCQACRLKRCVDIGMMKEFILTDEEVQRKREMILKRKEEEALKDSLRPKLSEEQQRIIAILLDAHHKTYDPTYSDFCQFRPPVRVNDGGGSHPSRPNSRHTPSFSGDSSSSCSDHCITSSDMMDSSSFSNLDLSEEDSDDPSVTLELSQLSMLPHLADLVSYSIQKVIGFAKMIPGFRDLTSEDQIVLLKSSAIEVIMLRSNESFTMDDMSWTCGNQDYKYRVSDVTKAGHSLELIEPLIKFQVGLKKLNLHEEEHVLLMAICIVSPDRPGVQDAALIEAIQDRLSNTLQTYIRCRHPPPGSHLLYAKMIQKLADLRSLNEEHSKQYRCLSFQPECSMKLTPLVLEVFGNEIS", "sequence (P19793 whole entry partner, the tested form may be a part)": "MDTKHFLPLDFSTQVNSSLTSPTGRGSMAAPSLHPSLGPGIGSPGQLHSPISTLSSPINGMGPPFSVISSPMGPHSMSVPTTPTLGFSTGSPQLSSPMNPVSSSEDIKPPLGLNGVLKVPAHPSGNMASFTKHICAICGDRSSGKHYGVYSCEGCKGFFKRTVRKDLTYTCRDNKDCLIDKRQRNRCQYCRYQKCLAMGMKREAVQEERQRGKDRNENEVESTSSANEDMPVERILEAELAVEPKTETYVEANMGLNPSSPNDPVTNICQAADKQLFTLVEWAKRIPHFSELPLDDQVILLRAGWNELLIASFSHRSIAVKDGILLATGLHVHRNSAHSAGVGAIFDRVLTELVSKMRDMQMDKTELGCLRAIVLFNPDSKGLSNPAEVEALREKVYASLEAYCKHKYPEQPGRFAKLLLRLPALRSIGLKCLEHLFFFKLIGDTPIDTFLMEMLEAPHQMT", "sequence (Q15648 whole entry partner, the tested form may be a part)": "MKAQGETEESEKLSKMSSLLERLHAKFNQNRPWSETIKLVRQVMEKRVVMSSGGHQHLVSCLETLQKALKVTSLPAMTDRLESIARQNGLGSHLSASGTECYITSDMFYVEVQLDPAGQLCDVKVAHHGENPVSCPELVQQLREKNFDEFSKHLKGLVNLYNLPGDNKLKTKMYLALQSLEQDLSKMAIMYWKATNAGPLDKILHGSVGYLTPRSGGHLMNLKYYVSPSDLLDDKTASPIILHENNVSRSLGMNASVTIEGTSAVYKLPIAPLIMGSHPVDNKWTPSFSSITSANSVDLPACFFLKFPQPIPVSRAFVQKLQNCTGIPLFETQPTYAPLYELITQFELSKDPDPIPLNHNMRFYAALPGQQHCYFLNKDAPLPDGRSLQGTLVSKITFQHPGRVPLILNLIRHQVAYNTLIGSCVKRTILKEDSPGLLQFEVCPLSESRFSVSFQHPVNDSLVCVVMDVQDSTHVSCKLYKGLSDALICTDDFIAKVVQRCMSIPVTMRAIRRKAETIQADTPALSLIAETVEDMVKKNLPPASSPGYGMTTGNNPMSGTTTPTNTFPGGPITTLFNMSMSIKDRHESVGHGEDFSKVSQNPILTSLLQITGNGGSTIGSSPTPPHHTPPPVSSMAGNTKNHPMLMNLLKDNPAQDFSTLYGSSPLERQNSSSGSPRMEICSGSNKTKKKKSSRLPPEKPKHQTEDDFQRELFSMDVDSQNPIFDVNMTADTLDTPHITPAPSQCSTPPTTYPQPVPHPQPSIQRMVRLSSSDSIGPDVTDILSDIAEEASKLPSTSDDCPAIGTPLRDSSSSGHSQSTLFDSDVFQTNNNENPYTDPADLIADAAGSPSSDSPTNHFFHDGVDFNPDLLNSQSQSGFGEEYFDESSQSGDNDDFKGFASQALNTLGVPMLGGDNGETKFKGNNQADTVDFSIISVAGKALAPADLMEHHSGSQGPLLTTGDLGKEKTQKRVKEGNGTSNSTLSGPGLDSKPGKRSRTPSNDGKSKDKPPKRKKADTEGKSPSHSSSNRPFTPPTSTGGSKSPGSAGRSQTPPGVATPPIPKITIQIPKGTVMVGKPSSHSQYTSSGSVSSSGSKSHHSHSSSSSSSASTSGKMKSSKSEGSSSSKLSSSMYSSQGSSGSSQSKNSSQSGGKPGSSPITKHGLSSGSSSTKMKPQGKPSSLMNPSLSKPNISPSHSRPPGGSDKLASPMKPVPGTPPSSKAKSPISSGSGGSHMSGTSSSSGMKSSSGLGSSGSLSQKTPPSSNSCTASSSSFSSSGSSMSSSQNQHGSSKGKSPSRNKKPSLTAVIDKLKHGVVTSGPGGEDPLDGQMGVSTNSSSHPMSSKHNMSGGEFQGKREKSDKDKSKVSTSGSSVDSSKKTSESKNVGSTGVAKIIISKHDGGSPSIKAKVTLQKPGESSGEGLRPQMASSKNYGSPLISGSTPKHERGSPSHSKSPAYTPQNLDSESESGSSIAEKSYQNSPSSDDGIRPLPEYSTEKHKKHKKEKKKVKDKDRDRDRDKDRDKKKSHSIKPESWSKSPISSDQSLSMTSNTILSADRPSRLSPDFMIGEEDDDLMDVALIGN", "test": "Luminescent proximity homogeneous assay (AlphaScreen): interaction of purified VDR, RxR and TRAP220 coactivator fragment", "type": "biochemical", "details": "UVB narrowband light (315 nm) and visible illumination at 420 nm"}}, "note": "Entries after “also recorded” stand apart in the source; their conditions may differ."}
{"smiles": "Cc1cc(OCC(O)C(C)(C)C)ccc1N=Nc1cccc(-c2ccc(C(=O)O)cc2)c1", "note": "(stereo not shown) [Compound 11b]", "values": [{"measurement": "photoisomerization rate (τ) trans to cis", "setting": "[1]; 10% intensity, 0.15 mW/mm^2, 25 °C", "result": 6, "unit": "s"}, {"measurement": "photoisomerization rate (τ) trans to cis", "setting": "[1]; 50% intensity, 0.75 mW/mm^2, 25 °C", "result": 2, "unit": "s"}, {"measurement": "thermal relaxation", "setting": "[1]; aqueous buffer used for pharmacological experiments (0.5% DMSO)", "result": 3, "unit": "h"}, {"measurement": "thermal relaxation in aqueous buffer, times faster than in pure DMSO", "setting": "[1]; buffer vs pure DMSO", "result": "~7", "unit": "times"}, {"measurement": "IL-23-induced ear inflammation (ear thickness)", "setting": "[2]; 420 nm light 8 min", "result": "significant reduction; also recorded: full antipsoriatic activity"}, {"measurement": "IL-23-induced ear inflammation (ear thickness)", "setting": "[2]; 520 nm light 8 min", "result": "only partially reduces"}, {"measurement": "modulation of activity by light", "setting": "[3]", "result": "modulated the activity"}]}
